Test results published in patent publication US12441762B2, “Hepatitis c virus NS3/4A protease inhibitors” (priority 2019, dated 2025).

Tests used:
[1] = target: T1, wild-type HCV NS3/4A protease (GT1a) (Hepatitis C virus genotype 1a, UniProt P27958, C1185S); experiment: biochemical; type: biochemical
T1 construct: His-tag (cleaved yes); made in house; host or cells: Escherichia coli BL21(DE3), PET28a vector
Method: (§1) The HCV GT1a NS3/4A protease gene described in the Bristol Myers Squibb patent was synthesized by GenScript and cloned into a PET28a expression vector. Cys159 was mutated to a serine residue to prevent disulfide bond formation and facilitate crystallization. The D168A gene was engineered using the site-directed mutagenesis protocol from Stratagene. Protein expression and purification were carried out as previously described.
(§2) Km constants for GT1 and D168A protease were previously determined. […] Inner filter effect corrections were applied to the initial velocities (Vo) at each substrate concentration. Vo versus substrate concentration graphs were globally fit to the Michaelis-Menten equation to obtain the Km value.
(§3) For each assay, 2 nM of NS3/4A protease (GT1a and D168A) was pre-incubated at room temperature for 1 h with increasing concentration of inhibitors in assay buffer (50 mM Tris, 5% glycerol, 10 mM DTT, 0.6 mM LDAO, and 4% dimethyl sulfoxide, pH 7.5). Inhibition assays were performed in non-binding surface 96-well black half-area plates (Corning) in a reaction volume of 60 μL. […] Three independent data sets were collected for each inhibitor with each protease construct.

[2] = target: T2, HCV NS3/4A protease D168A variant (Hepatitis C virus genotype 1a, UniProt P27958, C1185S/D1194A); experiment: biochemical; type: biochemical
T2 construct: His-tag (cleaved yes); made in house; host or cells: Escherichia coli BL21(DE3), PET28a vector
T2 sequence (P27958 1027-1208 C1185S/D1194A): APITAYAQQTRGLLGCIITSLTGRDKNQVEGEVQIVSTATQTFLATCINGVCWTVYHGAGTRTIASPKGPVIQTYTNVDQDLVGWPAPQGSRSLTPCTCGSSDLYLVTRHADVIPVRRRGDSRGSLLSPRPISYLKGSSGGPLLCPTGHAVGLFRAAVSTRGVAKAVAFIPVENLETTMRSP
Method: as §1, §2, §3

T1 sequence (P27958 1027-1208 C1185S): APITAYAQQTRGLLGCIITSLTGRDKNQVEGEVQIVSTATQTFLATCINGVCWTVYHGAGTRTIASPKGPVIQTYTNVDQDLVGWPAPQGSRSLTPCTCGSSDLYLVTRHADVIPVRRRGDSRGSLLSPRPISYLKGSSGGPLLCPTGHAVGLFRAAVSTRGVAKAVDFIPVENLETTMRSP

SMILES | Ki [1] [nM] | Ki [2] [nM]
COc1ccc2nc(C(F)(F)F)c(O[C@@H]3C[C@H]4C(=O)N[C@]5(C(=O)NS(=O)(=O)C6(C)CC6)C[C@H]5/C=C\CCCCC[C@H](NC(=O)O[C@H](C)C(F)(F)F)C(=O)N4C3)nc2c1 [NR01-147, (R)-1,1,1-Trifluoropropan-2-yl ((2R,6S,13aS,14aR,16aS,Z)-2-((7-methoxy-3-(trifluoromethyl)quinoxalin-2-yl)oxy)-14a-(((1-methylcyclopropyl)sulfonyl)carbamoyl)-5,16-dioxo-1,2,3,5,6,7,8,9,10,11,13a,14,14a,15,16,16a-hexadecahydrocyclopropa[e]pyrrolo[1,2-a][1,4]diazacyclopentadecin-6-yl)carbamate] | 2.8 ± 0.7 | 17 ± 2.4
COc1ccc2nc(C(F)(F)F)c(O[C@@H]3C[C@H]4C(=O)N[C@]5(C(=O)NS(=O)(=O)C6(C)CC6)C[C@H]5/C=C\CCCCC[C@H](NC(=O)OCC5(C)CC5)C(=O)N4C3)nc2c1 [NR01-117, (1-Methylcyclopropyl)methyl ((2R,6S,13aS,14aR,16aS,Z)-2-((7-methoxy-3-(trifluoromethyl)quinoxalin-2-yl)oxy)-14a-(((1-methylcyclopropyl)sulfonyl)carbamoyl)-5,16-dioxo-1,2,3,5,6,7,8,9,10,11,13a,14,14a,15,16,16a-hexadecahydrocyclopropa[e]pyrrolo[1,2-a][1,4]diazacyclopentadecin-6-yl)carbamate] | 2.89 ± 0.19 | 18.6 ± 2
COc1ccc2nc(C)c(O[C@@H]3C[C@H]4C(=O)N[C@]5(C(=O)NS(=O)(=O)C6(C)CC6)C[C@H]5/C=C\CCCCC[C@H](NC(=O)O[C@H](C)C5CC5)C(=O)N4C3)nc2c1 [NR02-26, (R)-1-Cyclopropylethyl ((2R,6S,13aS,14aR,16aS,Z)-2-((7-methoxy-3-methylquinoxalin-2-yl)oxy)-14a-(((1-methylcyclopropyl)sulfonyl)carbamoyl)-5,16-dioxo-1,2,3,5,6,7,8,9,10,11,13a,14,14a,15,16,16a-hexadecahydrocyclopropa[e]pyrrolo[1,2-a][1,4]diazacyclopentadecin-6-yl)carbamate] | 1.5 ± 0.06 | 23.5 ± 1.3
COc1ccc2nc(C)c(O[C@@H]3C[C@H]4C(=O)N[C@]5(C(=O)NS(=O)(=O)C6(C)CC6)C[C@H]5/C=C\CCCCC[C@H](NC(=O)OC5CCC5)C(=O)N4C3)nc2c1 [NR01-127, Cyclobutyl ((2R,6S,13aS,14aR,16aS,Z)-2-((7-methoxy-3-methylquinoxalin-2-yl)oxy)-14a-(((1-methylcyclopropyl)sulfonyl)carbamoyl)-5,16-dioxo-1,2,3,5,6,7,8,9,10,11,13a,14,14a,15,16,16a-hexadecahydrocyclopropa[e]pyrrolo[1,2-a][1,4]diazacyclopentadecin-6-yl)carbamate] | 0.3 ± 0.2 | 52.4 ± 9
COc1ccc2nc(C)c(O[C@@H]3C[C@H]4C(=O)N[C@]5(C(=O)NS(=O)(=O)C6(C)CC6)C[C@H]5/C=C\CCCCC[C@H](NC(=O)O[C@H](C)C(C)C)C(=O)N4C3)nc2c1 [NR01-119, (R)-3-Methylbutan-2-yl ((2R,6S,13aS,14aR,16aS,Z)-2-((7-methoxy-3-methylquinoxalin-2-yl)oxy)-14a-(((1-methylcyclopropyl)sulfonyl)carbamoyl)-5,16-dioxo-1,2,3,5,6,7,8,9,10,11,13a,14,14a,15,16,16a-hexadecahydrocyclopropa[e]pyrrolo[1,2-a][1,4]diazacyclopentadecin-6-yl)carbamate] | 1.52 ± 0.02 | 23.9 ± 3.5
COc1ccc2nc(C(F)(F)F)c(O[C@@H]3C[C@H]4C(=O)N[C@]5(C(=O)NS(=O)(=O)C6(C)CC6)C[C@H]5/C=C\CCCCC[C@H](NC(=O)OCC(C)C)C(=O)N4C3)nc2c1 [NR02-41, Isobutyl ((2R,6S,13aS,14aR,16aS,Z)-2-((7-methoxy-3-(trifluoromethyl)quinoxalin-2-yl)oxy)-14a-(((1-methylcyclopropyl)sulfonyl)carbamoyl)-5,16-dioxo-1,2,3,5,6,7,8,9,10,11,13a,14,14a,15,16,16a-hexadecahydrocyclopropa[e]pyrrolo[1,2-a][1,4]diazacyclopentadecin-6-yl)carbamate] | 4.01 ± 0.46 | 14.9 ± 1.4
COc1ccc2nc(C)c(O[C@@H]3C[C@H]4C(=O)N[C@]5(C(=O)NS(=O)(=O)C6(C)CC6)C[C@H]5/C=C\CCCCC[C@H](NC(=O)OC(C)(C)C(F)(F)F)C(=O)N4C3)nc2c1 [AJ-71, 1,1,1-Trifluoro-2-methylpropan-2-yl ((2R,6S,13aS,14aR,16aS,Z)-2-((7-methoxy-3-methylquinoxalin-2-yl)oxy)-14a-(((1-methylcyclopropyl)sulfonyl)carbamoyl)-5,16-dioxo-1,2,3,5,6,7,8,9,10,11,13a,14,14a,15,16,16a-hexadecahydrocyclopropa[e]pyrrolo[1,2-a][1,4]diazacyclopentadecin-6-yl)carbamate] | 2.56 ± 0.44 | 39 ± 2.9
COc1ccc2nc(C)c(O[C@@H]3C[C@H]4C(=O)N[C@]5(C(=O)NS(=O)(=O)C6(C)CC6)C[C@H]5/C=C\CCCCC[C@H](NC(=O)O[C@@H](C)C(C)C)C(=O)N4C3)nc2c1 [NR01-99, (S)-3-Methylbutan-2-yl ((2R,6S,13aS,14aR,16aS,Z)-2-((7-methoxy-3-methylquinoxalin-2-yl)oxy)-14a-(((1-methylcyclopropyl)sulfonyl)carbamoyl)-5,16-dioxo-1,2,3,5,6,7,8,9,10,11,13a,14,14a,15,16,16a-hexadecahydrocyclopropa[e]pyrrolo[1,2-a][1,4]diazacyclopentadecin-6-yl)carbamate] | 1.91 ± 0.3 | 21.7 ± 2.3
COc1ccc2nc(C(F)(F)F)c(O[C@@H]3C[C@H]4C(=O)N[C@]5(C(=O)NS(=O)(=O)C6(C)CC6)C[C@H]5/C=C\CCCCC[C@H](NC(=O)OCC5(C(F)(F)F)CC5)C(=O)N4C3)nc2c1 [NR02-50, (1-(Trifluoromethyl)cyclopropyl)methyl ((2R,6S,13aS,14aR,16aS,Z)-2-((7-methoxy-3-(trifluoromethyl)quinoxalin-2-yl)oxy)-14a-(((1-methylcyclopropyl)sulfonyl)carbamoyl)-5,16-dioxo-1,2,3,5,6,7,8,9,10,11,13a,14,14a,15,16,16a-hexadecahydrocyclopropa[e]pyrrolo[1,2-a][1,4]diazacyclopentadecin-6-yl)carbamate] | 3.46 ± 0.26 | 39.5 ± 5.1
CCC(C)(C)OC(=O)N[C@H]1CCCCC/C=C\[C@@H]2C[C@@]2(C(=O)NS(=O)(=O)C2(C)CC2)NC(=O)[C@@H]2C[C@@H](Oc3nc4cc(OC)ccc4nc3C(F)(F)F)CN2C1=O [NR02-47, tert-Pentyl ((2R,6S,13aS,14aR,16aS,Z)-2-((7-methoxy-3-(trifluoromethyl)quinoxalin-2-yl)oxy)-14a-(((1-methylcyclopropyl)sulfonyl)carbamoyl)-5,16-dioxo-1,2,3,5,6,7,8,9,10,11,13a,14,14a,15,16,16a-hexadecahydrocyclopropa[e]pyrrolo[1,2-a][1,4]diazacyclopentadecin-6-yl)carbamate] | 2.67 ± 0.23 | 15.1 ± 1
COc1ccc2nc(C(F)(F)F)c(O[C@@H]3C[C@H]4C(=O)N[C@]5(C(=O)NS(=O)(=O)C6(C)CC6)C[C@H]5/C=C\CCCCC[C@H](NC(=O)OC(C)(C)C(F)(F)F)C(=O)N4C3)nc2c1 [NR01-129, 1,1,1-Trifluoro-2-methylpropan-2-yl ((2R,6S,13aS,14aR,16aS,Z)-2-((7-methoxy-3-(trifluoromethyl)quinoxalin-2-yl)oxy)-14a-(((1-methylcyclopropyl)sulfonyl)carbamoyl)-5,16-dioxo-1,2,3,5,6,7,8,9,10,11,13a,14,14a,15,16,16a-hexadecahydrocyclopropa[e]pyrrolo[1,2-a][1,4]diazacyclopentadecin-6-yl)carbamate] | 3.6 ± 0.3 | 15.5 ± 1.8
COc1ccc2nc(C)c(O[C@@H]3C[C@H]4C(=O)N[C@]5(C(=O)NS(=O)(=O)C6(C)CC6)C[C@H]5/C=C\CCCCC[C@H](NC(=O)OCC5(C(F)(F)F)CC5)C(=O)N4C3)nc2c1 [NR02-49, (1-(Trifluoromethyl)cyclopropyl)methyl ((2R,6S,13aS,14aR,16aS,Z)-2-((7-methoxy-3-methylquinoxalin-2-yl)oxy)-14a-(((1-methylcyclopropyl)sulfonyl)carbamoyl)-5,16-dioxo-1,2,3,5,6,7,8,9,10,11,13a,14,14a,15,16,16a-hexadecahydrocyclopropa[e]pyrrolo[1,2-a][1,4]diazacyclopentadecin-6-yl)carbamate] | 0.9 ± 0.1 | 27.4 ± 1.2
COc1ccc2nc(C)c(O[C@@H]3C[C@H]4C(=O)N[C@]5(C(=O)NS(=O)(=O)C6(C)CC6)C[C@H]5/C=C\CCCCC[C@H](NC(=O)OCC5(C)CC5)C(=O)N4C3)nc2c1 [NR01-115, (1-Methylcyclopropyl)methyl ((2R,6S,13aS,14aR,16aS,Z)-2-((7-methoxy-3-methylquinoxalin-2-yl)oxy)-14a-(((1-methylcyclopropyl)sulfonyl)carbamoyl)-5,16-dioxo-1,2,3,5,6,7,8,9,10,11,13a,14,14a,15,16,16a-hexadecahydrocyclopropa[e]pyrrolo[1,2-a][1,4]diazacyclopentadecin-6-yl)carbamate] | 0.65 ± 0.2 | 21.6 ± 1.7
